Assay results from US20130123460A1, “PEPTIDE FOR IMPROVING BIOSTABILITY OF BIOACTIVE SUBSTANCE, AND BIOACTIVE SUBSTANCE HAVING IMPROVED BIOSTABILITY” (priority 2010, published 2013).
Where a SMILES comes first, the peptide text is derived from it. Bridges are numbered along the chain shown (N, C = ends).

Columns and labels:
[1] = in vitro; conditions: SD, rat, plasma
Procedure: The plasma stability was evaluated in vitro, in order to inspect the biostability of the somatostatin peptide complex.
SD rats were anesthetized with diethyl ether, whole blood was collected, and a plasma fraction was separated therefrom. The somatostatin or somatostatin peptide complex was added to the plasma so that the final concentration thereof was 0.5 μmol/L, and the mixture was incubated at 37° C. A sample was recovered after 0, 8 or 48 hours, and a remaining rate was evaluated by an HPLC/MS measurement of an amount of the somatostatin or somatostatin peptide complex.

[2] = tested on: db/db mice; experiment: Sustained blood glucose-lowering effect in type 2 diabetes mellitus model mice; format: in vivo; conditions: subcutaneous, 50 nmol/kg
Procedure: The improvement of the biostability was evaluated using a duration time of blood glucose-lowering effect in vivo as an indicator. […] The blood glucose level was measured using Glucose Test Wako (Wako Pure Chemical Industries, Ltd.).

Molecule `CC[C@H](C)[C@H](NC(=O)[C@H](CCC(=O)O)NC(=O)[C@H](CC(=O)O)NC(=O)[C@@H](NC(=O)[C@H](CC(C)C)NC(=O)[C@H](C)NC(=O)[C@H](CCCCN)NC(=O)[C@@H](NC(=O)CNC(=O)[C@H](CCC(=O)O)NC(=O)[C@@H](NC(=O)[C@@H](NC(=O)[C@H](CCCCN)NC(=O)[C@H](C)NC(=O)[C@@H]1CSSC[C@H](NC(=O)CNC(=O)[C@H](C)N)C(=O)N[C@@H](CCCCN)C(=O)N[C@@H](CC(N)=O)C(=O)N[C@@H](Cc2ccccc2)C(=O)N[C@@H](Cc2ccccc2)C(=O)N[C@@H](Cc2c[nH]c3ccccc23)C(=O)N[C@@H](CCCCN)C(=O)N[C@@H]([C@@H](C)O)C(=O)N[C@@H](Cc2ccccc2)C(=O)N[C@@H]([C@@H](C)O)C(=O)N[C@@H](CO)C(=O)N1)[C@@H](C)O)C(C)C)C(C)C)[C@@H](C)CC)C(=O)N[C@@H](CC(C)C)C(=O)N[C@@H](C)C(=O)N[C@@H](C)C(N)=O` [Example 28, SRIF(1-14)-GAm(28-44)-NH2] (H-AGCKNFFWKTFTSCAKTVEGVKALIDEILAA-NH2; disulfide 3-14; N-terminus assumed) has a remaining at 8 h, 0.5 μmol/L [1] of 56% and a remaining at 48 h, 0.5 μmol/L [1] of 0%.
With “[Ser8]-GLP-1(7-36)-NH2 [Comparative Example 2]” the “Time after administration at which the glucose-lowering effect disappeared” value [2] was “two hours”.
